Measurements taken from patent US20100160454A1, “ANTIMICROBIAL AGENTS, COMPOSITIONS AND PRODUCTS CONTAINING THE SAME, AND METHODS OF USING THE COMPOSITIONS AND PRODUCTS” (Eastman Chemical Company, priority 2008, published 2010).

How the values were obtained:
Test in all cases: Microbiological challenge testing in BPW broth, graded subculture counts
Type in all cases: cell-based
[1] = tested on: Bacillus subtilis Wild type
Procedure, shortened: (§1)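 Bacteria were grown in TSB with 1% dextrose at 35 °C ± 2 °C for at least 96 h, then added to BPW containing 1% dextrose plus test material to give 10^5 to 10^6 CFU/mL at time zero. Broth-alone controls were run in triplicate. Counts were made by spread plating on PCA.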

[2] = tested on: Staphylococcus epidermidis ATCC 12228
Procedure, shortened: as §1

[3] = tested on: Proteus vulgaris Wild type
Procedure, shortened: as §1

[4] = tested on: Pseudomonas aeruginosa Wild type; settings: P. aeruginosa
Procedure, shortened: as §1

[5] = tested on: Candida albicans Wild type; settings: C. albicans
Protocol: The microorganisms in the table below were used in challenge tests. They were either ATCC (American Type Culture Collection) or “wild type” as indicated. Wild type organisms were problematic organisms previously isolated from chemical products.
All of the microorganisms were grown in Tryptose Soy Broth (TSB), DIFCO™ available from Becton, Dickinson and Company, containing 1% dextrose. Candida albicans and Aspergillus niger, were incubated at 22° C.+/−2° C. for at least 96 hours. All bacteria were incubated at 35° C.+/−2° C. in a humidified incubator for at least 96 hours.
Candida albicans and Aspergillus niger were also grown on Sabouraud Dextrose Agar (SABD) at 22° C. for 7 to 14 days or until full sporulation was achieved.
The following procedure was followed to determine the amount of each challenge material (inoculum broth) needed to produce a 10^8 CFU/mL challenge, which is equivalent to a final test-sample microbial concentration of 10^5 to 10^6 CFU/mL (CFU=colony forming units).
Using a sterile pipette, 1 mL of the growth from each TSB culture was transferred into tubes of 9 mL buffered water (pH 7.2 phosphate buffer) and mixed thoroughly. This was repeated to make serial 1:10 dilutions. Then, 0.1 mL of each sample and dilution was inoculated onto agar plates to produce the equivalent of a further 1:10 dilution. (C. albicans and A. niger were inoculated onto SABD and bacteria were inoculated onto Plate Count Agar (PCA), DIFCO™ available from Becton, Dickinson and Company.) (The normal volume plated for most samples was 0.1 mL. Some samples that could be very low in micro-organisms (high dilutions) were plated using 0.5 mL of inoculum, in order to produce reproducible counts.) The samples were distributed on the plates using the spread-plate technique. The spread-plate technique is carried out by spreading the sample over the entire plate surface using a sterile spreading rod while rotating the plate with a rotary auto-plater. After the inoculum was absorbed completely by the agar, each plate was inverted and incubated (fungi at 22° C.+/−2° C. and bacteria at 35° C.+/−2° C.).
After incubation for at least 48 hours, colonies that had developed on the agar plates were counted (CFU) and recorded with the corresponding dilution. If counting had to be delayed temporarily, plates were refrigerated, preferably no more than 24 hours, until they could be counted. The number of CFU/mL was determined by multiplying the plate count by the dilution factor of the plate counted.
Turbidity in Nepholemetric Turbidity Units (NTU) was measured for each serial dilution using the HF-Micro 100 Model Turbidimeter. For each microorganism, the plate counts were compared to the turbidity readings.
On the day of challenge, the Candida albicans inoculum broth was poured through nonabsorbent sterile gauze and centrifuged. The […] was then diluted with buffered water (pH 7.2 phosphate buffer) until the desired turbidity was reached. Using a hemocytometer, a determination was made whether the challenge contained the desired concentration. Dilutions were made through 1.0×10^8 and three SABD spread plates were inoculated with 0.1 mL of each dilution. The plates were incubated for at least 48 hours and challenge counts were confirmed.
Control substrates (“broth alone”) were prepared for each microorganism separately in triplicate by adding 13.5 mL of Buffered Peptone Water broth (BPW) containing 1% dextrose to each 20-mL glass tube, then adding 1.5 mL challenge material to produce a final concentration at time zero of 10^5 to 10^6 CFU/mL and a total volume of 15 mL.

SMILES: OCC1CCCC(CO)C1 (stereo not drawn) [1,3-CHDM, 1,3-cyclohexanedimethanol]
- B. subtillis growth grade, 3 day ([1]; 0.5% weight/volume): 4 (1000 to 10,000 colonies countable (thus 10,000 CFU/mL to 100,000 CFU/mL))
- B. subtillis growth grade, 14 day ([1]; 0.5% weight/volume): 4 (1000 to 10,000 colonies countable (thus 10,000 CFU/mL to 100,000 CFU/mL))
- B. subtillis growth grade, 30 day ([1]; 0.5% weight/volume): 4 (1000 to 10,000 colonies countable (thus 10,000 CFU/mL to 100,000 CFU/mL))
- B. subtillis growth grade, 3 day ([1]; 1.25% weight/volume): 4 (1000 to 10,000 colonies countable (thus 10,000 CFU/mL to 100,000 CFU/mL))
- B. subtillis growth grade, 14 day ([1]; 1.25% weight/volume): 4 (1000 to 10,000 colonies countable (thus 10,000 CFU/mL to 100,000 CFU/mL))
- B. subtillis growth grade, 30 day ([1]; 1.25% weight/volume): 4 (1000 to 10,000 colonies countable (thus 10,000 CFU/mL to 100,000 CFU/mL))
- B. subtillis growth grade, 3 day ([1]; 2.5% weight/volume): 4 (1000 to 10,000 colonies countable (thus 10,000 CFU/mL to 100,000 CFU/mL))
- B. subtillis growth grade, 14 day ([1]; 2.5% weight/volume): 4 (1000 to 10,000 colonies countable (thus 10,000 CFU/mL to 100,000 CFU/mL))
- B. subtillis growth grade, 30 day ([1]; 2.5% weight/volume): 4 (1000 to 10,000 colonies countable (thus 10,000 CFU/mL to 100,000 CFU/mL))
- B. subtillis growth grade, 3 day ([1]; 5.0% weight/volume): 4 (1000 to 10,000 colonies countable (thus 10,000 CFU/mL to 100,000 CFU/mL))
- B. subtillis growth grade, 14 day ([1]; 5.0% weight/volume): 4 (1000 to 10,000 colonies countable (thus 10,000 CFU/mL to 100,000 CFU/mL))
- B. subtillis growth grade, 30 day ([1]; 5.0% weight/volume): 4 (1000 to 10,000 colonies countable (thus 10,000 CFU/mL to 100,000 CFU/mL))
- S. epidermidis growth grade, 3 day ([2]; 0.5% weight/volume): 4 (1000 to 10,000 colonies countable (thus 10,000 CFU/mL to 100,000 CFU/mL))
- S. epidermidis growth grade, 13 day ([2]; 0.5% weight/volume): 4 (1000 to 10,000 colonies countable (thus 10,000 CFU/mL to 100,000 CFU/mL))
- S. epidermidis growth grade, 30 day ([2]; 0.5% weight/volume): 4 (1000 to 10,000 colonies countable (thus 10,000 CFU/mL to 100,000 CFU/mL))
- S. epidermidis growth grade, 3 day ([2]; 1.25% weight/volume): 4 (1000 to 10,000 colonies countable (thus 10,000 CFU/mL to 100,000 CFU/mL))
- S. epidermidis growth grade, 13 day ([2]; 1.25% weight/volume): 3.7
- S. epidermidis growth grade, 30 day ([2]; 1.25% weight/volume): 4 (1000 to 10,000 colonies countable (thus 10,000 CFU/mL to 100,000 CFU/mL))
- S. epidermidis growth grade, 3 day ([2]; 2.5% weight/volume): 4 (1000 to 10,000 colonies countable (thus 10,000 CFU/mL to 100,000 CFU/mL))
- S. epidermidis growth grade, 13 day ([2]; 2.5% weight/volume): 3 (100 to 1000 colonies (thus 1000 to 10,000 CFU/mL))
- S. epidermidis growth grade, 30 day ([2]; 2.5% weight/volume): 4 (1000 to 10,000 colonies countable (thus 10,000 CFU/mL to 100,000 CFU/mL))
- S. epidermidis growth grade, 3 day ([2]; 5.0% weight/volume): 2 (52 to 100 colonies counted (thus 520 to 1000 CFU/mL))
- S. epidermidis growth grade, 13 day ([2]; 5.0% weight/volume): 1 (0 to 51 colonies counted (thus 10 to 510 CFU/mL based on 0.1-mL sample))
- S. epidermidis growth grade, 30 day ([2]; 5.0% weight/volume): 3 (100 to 1000 colonies (thus 1000 to 10,000 CFU/mL))
- P. vulgaris growth grade, 3 day ([3]; 0.5% weight/volume): 5 (More than 10,000 colonies estimated (thus more than 100,000 CFU/mL))
- P. vulgaris growth grade, 13 day ([3]; 0.5% weight/volume): 5 (More than 10,000 colonies estimated (thus more than 100,000 CFU/mL))
- P. vulgaris growth grade, 30 day ([3]; 0.5% weight/volume): 5 (More than 10,000 colonies estimated (thus more than 100,000 CFU/mL))
- P. vulgaris growth grade, 3 day ([3]; 1.25% weight/volume): 5 (More than 10,000 colonies estimated (thus more than 100,000 CFU/mL))
- P. vulgaris growth grade, 13 day ([3]; 1.25% weight/volume): 4 (1000 to 10,000 colonies countable (thus 10,000 CFU/mL to 100,000 CFU/mL))
- P. vulgaris growth grade, 30 day ([3]; 1.25% weight/volume): 4 (1000 to 10,000 colonies countable (thus 10,000 CFU/mL to 100,000 CFU/mL))
- P. vulgaris growth grade, 3 day ([3]; 2.5% weight/volume): 4 (1000 to 10,000 colonies countable (thus 10,000 CFU/mL to 100,000 CFU/mL))
- P. vulgaris growth grade, 13 day ([3]; 2.5% weight/volume): 4 (1000 to 10,000 colonies countable (thus 10,000 CFU/mL to 100,000 CFU/mL))
- P. vulgaris growth grade, 30 day ([3]; 2.5% weight/volume): 4 (1000 to 10,000 colonies countable (thus 10,000 CFU/mL to 100,000 CFU/mL))
- P. vulgaris growth grade, 3 day ([3]; 5.0% weight/volume): 4 (1000 to 10,000 colonies countable (thus 10,000 CFU/mL to 100,000 CFU/mL))
- P. vulgaris growth grade, 13 day ([3]; 5.0% weight/volume): 4 (1000 to 10,000 colonies countable (thus 10,000 CFU/mL to 100,000 CFU/mL))
- P. vulgaris growth grade, 30 day ([3]; 5.0% weight/volume): 4 (1000 to 10,000 colonies countable (thus 10,000 CFU/mL to 100,000 CFU/mL))
- Grade ([4]; 0.5% (wt/vol), 3 day): 5 (More than 10,000 colonies estimated (thus more than 100,000 CFU/mL))
- Grade ([4]; 0.5% (wt/vol), 13 day): 5 (More than 10,000 colonies estimated (thus more than 100,000 CFU/mL))
- Grade ([4]; 0.5% (wt/vol), 30 day): 5 (More than 10,000 colonies estimated (thus more than 100,000 CFU/mL))
- Grade ([4]; 1.25% (wt/vol), 3 day): 4 (1000 to 10,000 colonies countable (thus 10,000 CFU/mL to 100,000 CFU/mL))
- Grade ([4]; 1.25% (wt/vol), 13 day): 4 (1000 to 10,000 colonies countable (thus 10,000 CFU/mL to 100,000 CFU/mL))
- Grade ([4]; 1.25% (wt/vol), 30 day): 4 (1000 to 10,000 colonies countable (thus 10,000 CFU/mL to 100,000 CFU/mL))
- Grade ([4]; 2.5% (wt/vol), 3 day): 4 (1000 to 10,000 colonies countable (thus 10,000 CFU/mL to 100,000 CFU/mL))
- Grade ([4]; 2.5% (wt/vol), 13 day): 4 (1000 to 10,000 colonies countable (thus 10,000 CFU/mL to 100,000 CFU/mL))
- Grade ([4]; 2.5% (wt/vol), 30 day): 4 (1000 to 10,000 colonies countable (thus 10,000 CFU/mL to 100,000 CFU/mL))
- Grade ([4]; 5.0% (wt/vol), 3 day): 4 (1000 to 10,000 colonies countable (thus 10,000 CFU/mL to 100,000 CFU/mL))
- Grade ([4]; 5.0% (wt/vol), 13 day): 4 (1000 to 10,000 colonies countable (thus 10,000 CFU/mL to 100,000 CFU/mL))
- Grade ([4]; 5.0% (wt/vol), 30 day): 4 (1000 to 10,000 colonies countable (thus 10,000 CFU/mL to 100,000 CFU/mL))
- Grade ([5]; 0.5% (wt/vol), 3 day): 4 (1000 to 10,000 colonies countable (thus 10,000 CFU/mL to 100,000 CFU/mL))
- Grade ([5]; 0.5% (wt/vol), 14 day): 4 (1000 to 10,000 colonies countable (thus 10,000 CFU/mL to 100,000 CFU/mL))
- Grade ([5]; 0.5% (wt/vol), 30 day): 4 (1000 to 10,000 colonies countable (thus 10,000 CFU/mL to 100,000 CFU/mL))
- Grade ([5]; 1.25% (wt/vol), 3 day): 4 (1000 to 10,000 colonies countable (thus 10,000 CFU/mL to 100,000 CFU/mL))
- Grade ([5]; 1.25% (wt/vol), 14 day): 4 (1000 to 10,000 colonies countable (thus 10,000 CFU/mL to 100,000 CFU/mL))
- Grade ([5]; 1.25% (wt/vol), 30 day): 4 (1000 to 10,000 colonies countable (thus 10,000 CFU/mL to 100,000 CFU/mL))
- Grade ([5]; 2.5% (wt/vol), 3 day): 4 (1000 to 10,000 colonies countable (thus 10,000 CFU/mL to 100,000 CFU/mL))
- Grade ([5]; 2.5% (wt/vol), 14 day): 4 (1000 to 10,000 colonies countable (thus 10,000 CFU/mL to 100,000 CFU/mL))
- Grade ([5]; 2.5% (wt/vol), 30 day): 4 (1000 to 10,000 colonies countable (thus 10,000 CFU/mL to 100,000 CFU/mL))
- Grade ([5]; 5.0% (wt/vol), 3 day): 0
- Grade ([5]; 5.0% (wt/vol), 14 day): 2 (52 to 100 colonies counted (thus 520 to 1000 CFU/mL))
- Grade ([5]; 5.0% (wt/vol), 30 day): 3 (100 to 1000 colonies (thus 1000 to 10,000 CFU/mL))
